This note sets out measurements from publication PMC12016938, “A small molecule PKCε inhibitor reduces hyperalgesia induced by paclitaxel or opioid withdrawal” (JCI Insight, 2025).

Several values for one entry are separate records, joined by “and”; a condition that tells them apart may be missing. Identical values can stand only once. Like-named read-outs stand apart in the source and are kept apart here.

For one data set, the target named is T1, PKCε (Homo sapiens, UniProt Q02156).
T1 sequence (Q02156 1-737): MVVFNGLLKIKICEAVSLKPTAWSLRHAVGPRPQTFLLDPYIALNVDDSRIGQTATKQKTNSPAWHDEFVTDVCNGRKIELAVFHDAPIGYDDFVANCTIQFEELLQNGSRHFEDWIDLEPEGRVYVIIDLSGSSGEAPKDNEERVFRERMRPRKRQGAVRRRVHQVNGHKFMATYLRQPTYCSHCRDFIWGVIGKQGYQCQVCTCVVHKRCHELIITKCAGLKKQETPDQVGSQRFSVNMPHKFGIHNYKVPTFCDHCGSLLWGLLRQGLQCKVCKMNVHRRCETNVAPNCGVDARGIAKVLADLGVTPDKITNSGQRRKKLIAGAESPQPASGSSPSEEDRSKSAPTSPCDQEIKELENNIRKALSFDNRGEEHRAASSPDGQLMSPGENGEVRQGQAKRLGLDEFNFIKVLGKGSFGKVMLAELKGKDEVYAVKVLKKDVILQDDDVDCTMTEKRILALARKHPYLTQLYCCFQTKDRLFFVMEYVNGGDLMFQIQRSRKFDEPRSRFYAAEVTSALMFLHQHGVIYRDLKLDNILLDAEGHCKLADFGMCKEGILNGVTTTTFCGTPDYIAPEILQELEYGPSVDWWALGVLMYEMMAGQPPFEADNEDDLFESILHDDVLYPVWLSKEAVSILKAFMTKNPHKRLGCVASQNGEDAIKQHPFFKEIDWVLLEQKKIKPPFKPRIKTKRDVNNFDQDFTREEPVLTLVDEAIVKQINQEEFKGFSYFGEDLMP
The experiment in a line: PKCε activity with increasing ATP and CP612 (ATP competition). The data set is classed as biochemical. To be noted: without CP612; 95% CI 2.23–7.61 μM. The arrangement: His; AVI; made in house; host or cells: Sf9 cells. As to the method:
Therefore, we assayed PKCε activity with increasing concentrations of ATP and in the presence of increasing concentrations of CP612.
Kinase assays. CP612 was assayed against His-AVI–tagged human PKCε (1 nM) produced in Sf9 cells, and ROCK1 (Carna Biosciences; 5 nM) using the Lance-FRET kinase assay system (PerkinElmer Revvity). Other human recombinant PKCs (SignalChem Biotech) were assayed in triplicate at the following concentrations: PKCβII 1.6 nM, PKCγ 500 pM, PKCδ 5 nM, PKCθ 500 pM, and PKCζ 500 pM. PKCs were incubated in a 15 μL reaction volume with kinase buffer (20 mM Tris-HCL [pH 7.4], 10 mM MgCl2, 0.25 mM EGTA, 0.1 mg/mL BSA, and 0.15% Triton X-100), 50 nM ULight-labeled CREBtide […] (PerkinElmer, TRF0107, Revvity), and test compound. […] after 60 minutes with 10 μL of 2.5× Stop Solution/Detection Mix containing 20 mM EDTA and 4 nM LANCE Ultra Europium anti–phospho-[…] peptide antibody (PerkinElmer, TRF0200, Revvity). After incubation at 27°C for another 60 minutes, phosphorylation was detected using a FlexStation 3 Microplate Reader (Molecular Devices) in LANCE TR-FRET mode (excitation = 340 nm, emission = 665 nm) and expressed as relative fluorescence units (RFU). The percentage of inhibition was calculated as: (signal without test compound − signal with test compound)/(signal without test compound − signal without ATP) × 100. The Z’ factor for this assay ranged between 0.72 and 0.86.

A short description of data set [1]: Plasma protein binding, equilibrium dialysis (RED). The data set is classed as in vitro ADME, human. To be noted: for % Recovery / recovery at 4 h, 10 µM: PBS + Plasma relative to starting concentration of 10 uM. How it is done: Plasma protein binding. Binding of CP612 to human plasma proteins was measured by equilibrium dialysis using a Rapid Equilibrium Dialysis (RED) Device (Thermo Fisher Scientific). The device uses plates with wells preloaded with equilibrium dialysis membrane inserts, each of which includes 2 side-by-side chambers separated by a dialysis membrane. […] All compounds were tested in triplicate. […] A total of 200 μL of diluted test compound was then added to the plasma chambers of triplicate wells of a 48-sample RED plate (Thermo Fisher Scientific). In total, 400 μL of 0.1M PBS buffer were added to each buffer chamber. The plate was sealed with adhesive foil and incubated at 37°C with shaking for 4 hours, after which 30 μL were removed from each chamber and diluted with either 30 μL of plasma (for buffer chamber samples) or 30 μL of 0.1M PBS (for plasma chamber samples). Samples were extracted with 3 volumes of acetonitrile, centrifuged at 16,000g at 4°C for 10 minutes, and analyzed by LC-MS to calculate the amount of drug in each chamber. The percentage of free compound was calculated as the concentration in the buffer chamber/concentration in the plasma chamber × 100%. The percentage of protein-bound compound was calculated as 100% – the percentage of free compound.

Another data set can be described thus: Plasma stability. To be noted: for % Absolute: human plasma (hPL); for half-life: human.
A short description of the next data set: Microsomal clearance. To be noted: for half-life at 8.5 μM: both, human, microsomes; for % Absolute: human liver microsomes (HLM). How it is done:
Microsomal clearance. To determine if CP612 was a likely substrate for first-pass hepatic metabolism, we measured the stability of CP612 in the presence of human liver microsomes (BioIVT) pooled from over 100 male and female individuals. […] Test compounds were diluted to 10 μM in 0.1M PBS, and then 51 μL were dispensed in quadruplicate into wells of a 96-well plate, which was shaken at 600 rpm at 37°C. Reactions were initiated by adding 1.5 μL of microsomes (20 mg/mL) to the wells and 3 minutes later adding 7.5 μL of 8 mM NADPH (1 mM final concentration). Samples incubated without NADPH were used as negative controls.
Background: Liver microsomes are vesicles of endoplasmic reticulum, rich in cytochrome P450 enzymes.

The mark [2] stands for this setting: (Corrected concentration in PBS / Corrected concentration in Plasma) * 100, individual replicates.
[3] abbreviates: human, individual replicates, read-out: % Recovery.
[4] abbreviates: human, mean of replicates, read-out: % Recovery, Mean.
The mark [5] stands for this setting: time 0 min, individual replicates.
Setting [6] is: time 15 min, individual replicates.
Setting [7] is: time 30 min, individual replicates.
[8] abbreviates: time 60 min, individual replicates.

Experimental for Plasma stability: Plasma stability. To determine in vitro plasma stability, we calculated in vitro plasma half-life. We incubated test substances (0.6 μL) with 60 μL human plasma (BioIVT) in quadruplicate at 37°C.

At PKCε, `Nc1ncnc2c1ncn2[C@@H]1O[C@H](COP(=O)(O)OP(=O)(O)OP(=O)(O)O)[C@@H](O)[C@H]1O` [ATP] displayed an EC50 of 4.2 µM.

As to `COCCc1ccc(OCC(O)CNC(C)C)cc1` (stereo not shown) [Metoprolol, metoprolol], the “% Free” value in data set [1] (setting [2]) stood at 91.52%. Besides, in data set [1] (individual replicates), the “% Recovery” value was 70.00% and 78.51%; the “% Bound” value was 8.48% and 10.85%. The recovery at 4 h, 10 µM in data set [1] (setting [3]) was 66.7%. Besides, the recovery at 4 h, 10 µM in data set [1] (setting [4]) stood at 71.8%.

Consider `CCN(CC)CCOC(=O)c1ccc(N)cc1` [Procaine, reference compound], for which the “% Absolute” value was 122.69% and 106.84% and 107.17% and 113.76% in “Plasma stability” (setting [5]); 0.17% and 0.32% and 0.18% in the data set “Plasma stability” (setting [6]); 0.00% in the data set “Plasma stability” (setting [7]); 0.00% in the data set “Plasma stability” (setting [8]); 0.00% in the data set “Plasma stability” (time 180 min, individual replicates). Also, in the data set “Plasma stability” (human plasma, 37°C), the “Plasma stability Cl” value is given as 25.29 ± 1.35 µL/min. In addition, in “Plasma stability” (human plasma, individual replicates), the “Cl (clearance)” value is 26.280 and 23.303 and 25.557 and 26.005. Besides, the “t1/2 (half life)” value in the data set “Plasma stability” (human plasma, individual replicates, time axis in min, in min) was 1.785 and 1.627 and 1.599. Further, the half-life was 1.65 ± 0.09 min in the data set “Plasma stability” (human plasma, Plasma stability t½ (min), 37°C); 1.65 min in the data set “Plasma stability” (plasma, t1/2 (half life), Mean, human plasma, mean of replicates, time axis in min); 1.58 min in “Plasma stability” (plasma, t1/2 (half life), human plasma, individual replicates, time axis in min).

In the case of `C[C@]12CC[C@H]3[C@@H](CCC4=CC(=O)CC[C@@]43C)[C@@H]1CC[C@@H]2O` [Testosterone], the “% Free” value in data set [1] (setting [2]) was 6.33% and 6.14%. In addition, in data set [1] (individual replicates), the “% Recovery” value is 74.81% and 77.04%. For the same compound, the “% Absolute (Sample_PBS)” value in data set [1] (PBS compartment, relative to starting concentration of 10 uM, individual replicates) is 4.21% and 4.46% and 4.45%. Moreover, the fraction unbound at 4 h, 10 μM is 0.0593 in data set [1] (human plasma, individual replicates, read-out: % Bound (converted)); 0.0593 in data set [1] (human, plasma, (Corrected concentration in PBS / Corrected concentration in Plasma) * 100, individual replicates, read-out: % Free); 0.0613 in data set [1] (human, plasma, human plasma, 37°C, 4 hours, read-out: Plasma protein binding (% bound) (converted)); 0.0613 in data set [1] (human, plasma, mean of replicates, read-out: % Bound, Mean (converted)); 0.0613 in data set [1] (human, plasma, mean of replicates, read-out: % Free, Mean). Further, the recovery at 4 h, 10 µM turned out to be 75.2% in data set [1] (setting [3]) and 75.7% in data set [1] (setting [4]). The “% Bound” value in data set [1] (individual replicates) was 93.67% and 93.86%. Also, in data set [1] (plasma compartment, relative to starting concentration of 10 uM, individual replicates), the “% Absolute (Sample_Plasma)” value is 70.98% and 70.35% and 72.59%. Besides, the “t1/2 (half life)” value in the data set “Microsomal clearance” (HLM, individual replicates, time axis in min) is 14.3079 and 11.3615 and 11.8498. The half-life at 8.5 μM was found to be 12.7 ± 1.37 min in “Microsomal clearance” (Microsomal clearance t½ (min), human liver microsomes, NADPH); 13.4 min in “Microsomal clearance” (t1/2 (half life), HLM, individual replicates, time axis in min); 12.7 min in “Microsomal clearance” (t1/2 (half life), Mean, HLM, mean of replicates, time axis in min). Moreover, the “% Absolute” value was 122.56% and 99.88% and 106.38% and 105.61% in the data set “Microsomal clearance” (setting [5]); 82.74% and 96.20% and 86.80% and 92.26% in the data set “Microsomal clearance” (time 5 min, individual replicates); 59.56% and 70.78% in the data set “Microsomal clearance” (setting [6]); 54.15% and 32.42% and 34.78% and 45.15% in “Microsomal clearance” (setting [7]); 125.64% and 123.20% and 118.26% and 117.65% in the data set “Microsomal clearance” (time 60 min, -NADPH, individual replicates); 5.58% and 4.76% and 2.71% and 3.01% in “Microsomal clearance” (setting [8]). The “Microsomal clearance Cl” value in the data set “Microsomal clearance” (human liver microsomes, NADPH) is reported as 109.81 ± 11.69 µL/min.

A word on the EC50: it is the concentration needed to bring the measured effect to its halfway point. Low readings indicate an effect from little substance, high ones a need for much substance. In general, half-life refers to how long it takes for the measured level to halve. Read a low half-life as rapid decline.
